Assay results reported in PubChem BioAssay (NCI).
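Five concentrations, 48 hours, 96-well plates. The concentration for 50% growth inhibition is given as GI50. TGI is the concentration that stops growth completely.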

Tests used:
Assay in all cases: NCI tumour cell line growth inhibition, 48 h
786-0 renal = system: 786-0 renal
CCRF-CEM leukemia = system: CCRF-CEM leukemia
HCT-15 colon = system: HCT-15 colon
HOP-62 NSCLC = system: HOP-62 NSCLC
MCF7 breast = system: MCF7 breast
NCI-H226 lung = system: NCI-H226 lung
NCI/ADR-RES ovarian = system: NCI/ADR-RES ovarian
OVCAR-5 ovarian = system: OVCAR-5 ovarian
SF-539 CNS = system: SF-539 CNS
SNB-75 CNS = system: SNB-75 CNS

Row | SMILES | TGI (786-0 renal) | TGI (CCRF-CEM leukemia) | TGI (HCT-15 colon) | TGI (HOP-62 NSCLC) | TGI (MCF7 breast) | TGI (NCI-H226 lung) | TGI (NCI/ADR-RES ovarian) | TGI (OVCAR-5 ovarian) | TGI (SF-539 CNS) | TGI (SNB-75 CNS) | GI50 (786-0 renal) | GI50 (CCRF-CEM leukemia) | GI50 (HCT-15 colon) | GI50 (HOP-62 NSCLC) | GI50 (MCF7 breast) | GI50 (NCI-H226 lung) | GI50 (NCI/ADR-RES ovarian) | GI50 (OVCAR-5 ovarian) | GI50 (SF-539 CNS) | GI50 (SNB-75 CNS)
1 | CN(C)CC1=Nc2cccc3cccc(c23)N1 | 25.8 µM | > 100 µM | 77.5 µM | > 100 µM | 30.8 µM | 37.4 µM | > 100 µM | 31.6 µM | 35.9 µM | 30.4 µM | – | – | – | – | – | – | – | – | – | –
2 | Cn1c2ccccc2c2[nH]c3ccccc3c(=O)c21 | > 100 µM | > 100 µM | > 100 µM | > 100 µM | > 100 µM | > 100 µM | > 100 µM | > 100 µM | > 100 µM | > 100 µM | – | – | – | – | – | – | – | – | – | –
3 | CNc1ncc2cc(Oc3ccc(F)cc3F)c(=O)n(C)c2n1 | > 25 µM | > 25 µM | > 25 µM | > 25 µM | > 25 µM | > 25 µM | > 25 µM | > 25 µM | > 25 µM | > 25 µM | > 25 µM | > 25 µM | > 25 µM | > 25 µM | > 25 µM | > 25 µM | > 25 µM | > 25 µM | > 25 µM | 9.33 µM
4 | O=C1OC(OC/C(Br)=C(/Br)COC2OC(=O)C(Cl)=C2Cl)C(Cl)=C1Cl (stereo not given) | 14.1 µM | 4.93 µM | 27.1 µM | 28.8 µM | 30.9 µM | > 70.7 µM | 36.9 µM | 33 µM | 36.7 µM | 36 µM | – | – | – | – | – | – | – | – | – | –
5 | COc1ccc(OC)c(/C=N/N=C2\C(=O)Nc3c(Cl)cc(Cl)cc32)c1 | > 100 µM | > 100 µM | > 100 µM | 79.4 µM | > 100 µM | > 100 µM | > 100 µM | > 100 µM | > 100 µM | 19.7 µM | – | – | – | – | – | – | – | – | – | –
6 | CN(C)N=Nc1nn(C(=O)Nc2ccc(Cc3ccccc3)cc2)c2ccccc12 | > 100 µM | > 100 µM | > 100 µM | > 100 µM | > 100 µM | > 100 µM | > 100 µM | > 100 µM | > 23.7 µM | > 100 µM | 5.25 µM | 4.42 µM | 0.396 µM | > 100 µM | 0.387 µM | > 100 µM | 0.957 µM | > 21.6 µM | 1.46 µM | 85.4 µM
7 | COC(=O)Nc1nc2ccc(S(=O)(=O)c3ccc(NC(=O)Nc4cc(C(F)(F)F)ccc4F)cc3)cc2[nH]1 | > 25 µM | > 25 µM | > 25 µM | > 25 µM | > 25 µM | > 25 µM | > 25 µM | > 25 µM | > 25 µM | > 25 µM | > 25 µM | > 25 µM | > 25 µM | > 25 µM | > 25 µM | > 25 µM | > 25 µM | > 25 µM | > 25 µM | > 25 µM
8 | NCCSC(C[N+](=O)[O-])c1ccccc1Cl (stereo not given) | 4.33 µM | > 86.7 µM | 5.97 µM | 23.1 µM | 3.2 µM | 5.55 µM | > 23.4 µM | 10.4 µM | 5.49 µM | 16.9 µM | 2.16 µM | 3.8 µM | 2.21 µM | 8.09 µM | 1.13 µM | 2.28 µM | 9.85 µM | 4.66 µM | 2.42 µM | 4.22 µM
9 | Oc1ccc(O)c2c1C1(Cl)C(Cl)=C(Cl)C2(Cl)C1(Cl)Cl | 22.4 µM | > 100 µM | 26.1 µM | 21.2 µM | > 100 µM | 41 µM | 9.53 µM | 33.8 µM | 18.7 µM | 6.84 µM | 7.84 µM | 4.14 µM | 4.15 µM | 8.27 µM | 6.4 µM | 10.7 µM | 3.03 µM | 12.6 µM | 4.38 µM | 1.52 µM
10 | CN(C)C(=S)SCC(N)=O | > 100 µM | > 100 µM | > 100 µM | > 100 µM | > 100 µM | > 100 µM | > 100 µM | > 100 µM | > 100 µM | > 100 µM | – | – | – | – | – | – | – | – | – | –
